Where two headings read alike, the source gives them in different places.
Columns and labels:
[1] = test system: HIV-1; experiment: microbe, parasite or virus in culture; conditions: for HIV-1 potency compared to parent nucleoside TFV: in words
Protocol: (§1) Compounds synthesized were evaluated against HIV-infected PBMCs and antiviral activity was assessed by measuring reverse transcriptase in cell supernatants. Compounds 11a-e, 12a-e, and 13 were assayed against HBV and qPCR was used to quantify viral DNA following incubation in HepG2.2.15 cells after 6 days.

[2] = test system: PBMCs; experiment: in vitro; assay type: cell-based, human
[3] = test system: HBV; experiment: Antiviral activity against HBV in HepG2.2.15 cells, viral DNA by qPCR after 6 days; conditions: for HBV TI (CC50/EC50): HepG2
Protocol: as §1

[4] = test system: HepG2; experiment: Cytotoxicity: viability of uninfected HepG2 cells; assay type: cell-based; conditions: read-out: HBV CC50 (HepG2)
[5] = Stability in PBS (pH 7.4), carbonate/bicarbonate buffer (pH 9) and DMEM by LC-MS; conditions: for half-life: PBS buffer
Protocol: Compound 11c and 11d were selected as model compounds and subjected to various media including human serum, PBS buffer (pH 7.4), Dulbecco's Modified Eagle Medium (DMEM), and carbonate/bicarbonate buffer (pH 9). Aliquots of each sample were analyzed by LC-MS at varying times points over the course of 2 hours with a final time point at 24 to assess decomposition.
Experiments were performed to see how compounds how compounds 11c and 11d would fare in the presence of base (pH 9), PBS (pH 7.4), and upon exposure to nucleophilic media (DMEM). […] To this end, the stability of hexadecyloxypropyl 2′-deoxy-2′-fluorouridine, a non-labile alkoxyalkyl lipid conjugate of 2′-deoxy-2′-fluorouridine in PBS buffer using Pyrex, Kimax, and silanized glassware was assessed. […] This prompted re-assessment of the PBS stability of the disulfide lipid conjugates in Kimax glassware. Note that all stability experiments were performed in Kimax glassware using hexadecyloxypropyl 2′-deoxy-2′-fluorouridine as an internal standard.

[6] = in vitro; assay type: cell-based, human; conditions: human, uninfected PBMCs; Table 1; viability of uninfected cells reduced by 50%; read-out: HIV-1 CC50 (PBMCs)
[7] = Cytotoxicity: viability of uninfected HepG2 cells; assay type: cell-based; conditions: human, uninfected HepG2 cells; Table 1; uninfected cells; read-out: HBV CC50 (HepG2)
[8] = Stability in human plasma/serum by LC-MS; assay type: in vitro ADME
Protocol: Aliquots of each sample were analyzed by LC-MS at varying times points over the course of 2 hours with a final time point at 24 to assess decomposition.

[9] = monkeys; cited from earlier work
[10] = rats; cited from earlier work
[11] = read-out: HIV-1 activity (EC50), PBMCs
[12] = Table 1, viability of uninfected cells reduced by 50%, read-out: HIV-1 CC50 (PBMCs)
[13] = read-out: HBV EC50 (HepG2), Table 1, inhibit HBV by 50%
[14] = read-out: HIV-1 EC50 (PBMCs), Table 1, inhibit HIV-1 by 50%, average of triplicate
[15] = read-out: HIV-1 EC50 (PBMCs), Table 2
[16] = Table 2, read-out: HIV-1 CC50 (PBMCs)
[17] = read-out: HBV EC50 (HepG2), Table 2

| Molecule | HIV-1 TI (CC50/EC50) ([1]; Table 1, PBMCs) | CC50 [2, 12] | HBV TI (CC50/EC50) ([3]; Table 1) | EC50 [3, 13] | CC50 ([4]; Table 1, uninfected cells) | EC50 [1, 14] | HIV-1 TI (CC50/EC50) ([1]; Table 2, PBMCs) | EC50 [1, 15] | CC50 [2, 16] | HBV TI (CC50/EC50) ([3]; Table 2) | EC50 [3, 17] | CC50 ([4]; Table 2) | other results |
| --- | --- | --- | --- | --- | --- | --- | --- | --- | --- | --- | --- | --- | --- |
| CCCCCCCCCCCCSSCCOP(=O)(O)CO[C@H](C)Cn1cnc2c(N)ncnc21.N [Compound 11b] | 8,300 | 25 µM | >30 | 1.67 µM | > 50 µM | – | – | – | – | – | – | – | EC50 [1, 11]: 0.003 µM; fold more active than CMX-157, HIV-1 ([1]; vs CMX-157 (20 nM)): seven-fold |
| CCCCCCCCCCCCCCSSCCOP(=O)(O)CO[C@H](C)Cn1cnc2c(N)ncnc21.N [Compound 11c] | 28,000 | 14 µM | >56 | 0.444 µM | > 25 µM | 0.0005 µM | – | – | – | – | – | – | stability of C14 chain relative to C16 linker of compound 11d ([5]; all examined media except human serum): near two-fold stability increase |
| CCCCCCCCCCCCCCCCSSCCOP(=O)(O)COC(C)Cn1cnc2c(N)ncnc21 (stereo not shown) [Compound 11d, 2-(hexadecyldisulfanyl)ethyl hydrogen (((1-(6-amino-9H-purin-9-yl)propan-2-yl)oxy)methyl)phosphonate] | 22,000 | – | >1250 | – | – | – | – | – | – | – | – | – | EC50 ([1]; Human immunodeficiency virus 1, PBMC, read-out: HIV-1 EC50 (PBMCs)): 0.00065 µM; EC50 ([1]; Human immunodeficiency virus 1, PBMC, read-out: HIV-1 activity (EC50)): ~0.0005 µM; HIV-1 TI (CC50/EC50) ([1]; Table 3, PBMCs): 22,000; CC50 [6]: 14.3 µM; EC50 ([3]; Hepatitis B virus, HepG2, read-out: HBV EC50 (HepG2)): 0.02 µM; EC50 ([3]; Hepatitis B virus, HepG2, read-out: HBV potency): 0.02 µM; HBV TI (CC50/EC50) ([3]; Table 3): >1200; CC50 [7]: > 25 µM; CC50 ([4]; Table 3): > 25 µM; half-life ([8]; human serum, Kimax glassware, read-out: stability (half-life) in human serum): > 24 h; half-life ([8]; human, human plasma, read-out: half-life in human plasma): > 24 h; half-life ([5]; carbonate/bicarbonate buffer and DMEM, pH 9): ≤ 2 h; half-life ([5]; pH 7.4): < 0.333 h |
| CCCCCCCCCCCCCCCCCCSSCCOP(=O)(O)CO[C@H](C)Cn1cnc2c(N)ncnc21.N [Compound 11e] | 11,000 | 6.36 µM | >50 | 0.505 µM | > 50 µM | 0.0006 µM | – | – | – | – | – | – | – |
| CCCCCCCCCCSSCCOP(=O)(CO[C@H](C)Cn1cnc2c(N)ncnc21)OCCSSCCCCCCCCCC [Compound 12a] | – | – | – | – | – | – | >287 | 0.349 µM | > 100 µM | >1 | > 100 µM | > 100 µM | HIV-1 potency compared to parent nucleoside TFV [1]: comparable to TFV |
| CCCCCCCCCCCCSSCCOP(=O)(CO[C@H](C)Cn1cnc2c(N)ncnc21)OCCSSCCCCCCCCCCCC [Compound 12b] | – | – | – | – | – | – | >85.0 | 1.18 µM | > 100 µM | >1 | > 100 µM | > 100 µM | – |
| CCCCCCCCCCCCCCSSCCOP(=O)(CO[C@H](C)Cn1cnc2c(N)ncnc21)OCCSSCCCCCCCCCCCCCC [Compound 12c] | – | – | – | – | – | – | >529 | 0.189 µM | > 100 µM | >1 | > 100 µM | > 100 µM | HIV-1 potency compared to parent nucleoside TFV [1]: two-fold increase in activity |
| CCCCCCCCCCCCCCCCSSCCOP(=O)(CO[C@H](C)Cn1cnc2c(N)ncnc21)OCCSSCCCCCCCCCCCCCCCC [Compound 12d] | – | – | – | – | – | – | 4.0 | 6.32 µM | > 25 µM | >1 | > 25 µM | > 25 µM | – |
| CCCCCCCCCCCCCCCCCCSSCCOP(=O)(CO[C@H](C)Cn1cnc2c(N)ncnc21)OCCSSCCCCCCCCCCCCCCCCCC [Compound 12e] | – | – | – | – | – | – | >76 | 0.331 µM | > 25 µM | >1 | > 25 µM | > 25 µM | HIV-1 potency compared to parent nucleoside TFV [1]: comparable to TFV |
| C[C@H](Cn1cnc2c(N)ncnc21)OCP(=O)(O)OCCSSCCO [DTE-TFV, reference compound] | >62.1 | > 100 µM | >8.6 | 11.6 µM | > 100 µM | 1.61 µM | – | – | – | – | – | – | fold less active than TFV against HIV-1 [1]: 5 fold; t1/2 in human plasma ([8]; human plasma): 0.567 h |
| Nc1ncnc2c1ncn2CCOCP(=O)(O)O [adefovir] | – | – | – | – | – | – | – | – | – | – | – | – | bioavailability [9]: < 1%; bioavailability [10]: 8-11% |
| tenofovir disoproxil fumarate [TDF, reference compound] | 9,500 | 43.7 µM | 190 | 0.34 µM | 64.5 µM | 0.0046 µM | 9,500 | 0.0046 µM | 43.7 µM | 86 | 0.34 µM | 29.2 µM | HIV-1 TI (CC50/EC50) ([1]; Table 3, PBMCs): 9,500; TI(CC50/EC50) ([1]; Table 4, HIV-1, PBMCs): 9,500; EC50 ([1]; read-out: EC50 (PBMCs), Table 4, HIV-1): 0.0046 µM; EC50 ([1]; read-out: HIV-1 EC50 (PBMCs), Table 3): 0.0045 µM; EC50 [1, 11]: 0.0046 µM; CC50 ([2]; Table 3, read-out: HIV-1 CC50 (PBMCs)): 44 µM; CC50 ([2]; Table 4, read-out: CC50 (PBMCs)): 43.7 µM; HBV TI (CC50/EC50) ([3]; Table 3): 190; EC50 ([3]; read-out: HBV EC50 (HepG2), Table 3): 0.34 µM; CC50 ([4]; Table 3): 64.5 µM |
